We go through two compounds from patent US9126994B2, “Crystalline form of a quinolinone-carboxamide compound” (Theravance Biopharma R&D IP, LLC, priority 2005, dated 2015).

Holding throughout (assay type): physicochemical
A short description of data set [1]: Dynamic moisture sorption (DMS) assessment. The settings on record: for sorption/desorption profile: about 2% to about 90% RH, room temperature. As to the method: Dynamic moisture sorption (DMS) assessment was performed at 25° C. using a VTI atmospheric microbalance, SGA-100 system (VTI Corp., Hialeah, Fla. 33016). A sample size of approximately 5-10 mg was used and the humidity was set at the ambient value at the start of the analysis. A typical DMS analysis consisted of three scans: ambient to 2% relative humidity (RH), 2% RH to 90% RH, 90% RH to 5% RH at a scan rate of 5% RH/step. The mass was measured every two minutes and the RH was changed to the next value (±5% RH) when the mass of the sample was stable to within 0.02% for 5 consecutive points. Representative DMS traces for samples of a crystalline hydrochloride salt and of a crystalline hydrate of a hydrochloride salt of compound I are shown in FIGS. 3 and 6, respectively.

Data set [2] can be described thus: Thermal analysis (DSC and TGA). As to the method: Differential scanning calorimetry (DSC) was performed using a TA Instruments Model Q-100 module. Data were collected and analyzed using TA Instruments Thermal Advantage for Q Series™ software. A sample of about 1-10 mg was accurately weighed into an aluminum pan with lid. The sample was evaluated using a linear heating ramp of 10° C./min from 5° C. to, typically, 265° C. The DSC cell was purged with dry nitrogen during use. Representative DSC traces for samples of the crystalline hydrochloride salt and of the crystalline hydrate of a hydrochloride salt of compound I are shown in FIGS. 2 and 5, respectively.
Thermogravimetric analysis (TGA) was performed using a TA Instruments Model Q-500 module. Data were collected and analyzed using TA Instruments Thermal Advantage for Q Series™ software. A sample weighing about 1-5 mg was placed in an aluminum pan on a platinum cradle and scanned from ambient temperature to 300° C. with a linear heating rate of 10° C./min. The balance and furnace chambers were purged with nitrogen during use. Representative TGA traces for samples of a crystalline hydrochloride salt and of a crystalline hydrate of a hydrochloride salt of compound I are also shown in FIGS. 2 and 5, respectively.

Data set [3] in a line: Solid state stability assessment. The settings on record: for change in DSC, TGA, PXRD results after storage: hydrochloride. The source says:
At specific intervals, the contents of a representative vial was removed and analyzed by DSC, TGA, PXRD, and by HPLC for chemical purity.

Setting [4] is: comparison of DSC and TGA traces.
The mark [5] stands for this setting: 24 weeks at 40° C. and 75% relative humidity.

Consider `CC(C)n1c(=O)c(C(=O)N[C@H]2C[C@H]3CC[C@@H](C2)N3C[C@@H](O)CN(C)S(C)(=O)=O)cc2ccccc21.Cl` [crystalline hydrochloride salt, 1-isopropyl-2-oxo-1,2-dihydroquinoline-3-carboxylic acid {(1S,3R,5R)-8-[(R)-2-hydroxy-3-(methanesulfonyl-methyl-amino)propyl]-8-azabicyclo[3.2.1]oct-3-yl}amide hydrochloride], for which the “weight change (hygroscopicity)” value in data set [1] (2% to 90% relative humidity, room temperature (25° C.)) is listed as “less than 0.2%”. In data set [1], the sorption/desorption profile result is reported as “reversible”. The deliquescence result in data set [1] (exposed to up to 90% relative humidity at room temperature) is listed as “neither the crystalline hydrochloride salt of the invention nor the hydrate thereof is deliquescent”. Besides, the “temperature up to which thermally stable” value in data set [2] was “greater than 200 °C”. In addition, the “temperature below which no significant thermal event” value in data set [2] (TGA / DSC trace, 10° C./min) was “about 225 °C”. The “decomposition (degradation) temperature” value in data set [2] (setting [4]) is “above 230 °C”. Moreover, the “chemical degradation by HPLC after storage” value in data set [3] (setting [5]) is listed as “no chemical degradation”. The “change in DSC, TGA, PXRD results after storage” value in data set [3] (setting [5]) is listed as “no detectable changes”; in data set [3] (24 weeks at 40° C. and 75% relative humidity, listed as hydrochloride salt), “no detectable change”. For the same compound, the “chemical purity of the stored sample (HPLC)” value in data set [3] (after 24 weeks of storage, open glass vials, 40° C. and 75% RH) turned out to be 99.6%.
For the compound `CC(C)n1c(=O)c(C(=O)N[C@H]2C[C@H]3CC[C@@H](C2)N3C[C@@H](O)CN(C)S(C)(=O)=O)cc2ccccc21.Cl.O` [crystalline hydrate, crystalline hydrate of hydrochloride salt of 1-isopropyl-2-oxo-1,2-dihydroquinoline-3-carboxylic acid {(1S,3R,5R)-8-[(R)-2-hydroxy-3-(methanesulfonyl-methyl-amino)propyl]-8-aza-bicyclo[3.2.1]oct-3-yl}amide], the weight gain entry in data set [1] (40% RH to 75% RH) was “less than 0.25%”. In addition, the sorption/desorption profile entry in data set [1] is “reversible”. Moreover, the “weight loss on drying” value in data set [1] (dried from ambient to 2% RH, regained from 2% RH to 40% RH) is recorded as roughly 2.3%. Moreover, the “decomposition (degradation) temperature” value in data set [2] (setting [4]) is “above 250 °C”. Also, in data set [2] (comparison of DSC and TGA traces, melt about 225° C. to about 250° C.), the “decomposition at the melt transition” value is given as “not significant”.
